From patent publication EP1358888A1, “The human peptide antibiotic LL-37/hCAP-18 is an inducer of angiogenesis” (priority 2002, dated 2003)
Entries after “also recorded” stand apart in the source; their conditions may differ. Where two headings read alike, the source gives them in different places.

Test system: HUVECs
Assay: Inhibition experiments: signalling inhibitors on LL-37/hCAP-18-induced endothelial proliferation
Assay type: cell-based, human
Description: Stimulation of angiogenesis by LL-37/hCAP-18 in vitro. a, In vitro proliferation assays. HUVECs were seeded on six well plastic dishes and cultivated in serum free medium. Different concentrations of LL-37/hCAP-18 and control peptides were added to the culture medium. Figures on the left hand side indicate the numbers of cells per µl of volume after 72 h. VEGF was used as positive control. […] A significance level of P < 0.05 is labeled with **.b. […] HUVECs were seeded on Matrigel support and cultivated in serum free medium in the absence (c) or presence (d) of 0.5 µg/ml LL-37/hCAP-18. After 18 h, the cultures were inspected for the formation of rings and cords. Representative figures are shown.
Endothelial cells from human umbilical veins (HUVEC) were isolated as described before ^8. 10^4 cells were seeded on six well plastic dishes in serum free medium. Different concentrations of LL-37 were added to the culture medium. VEGF (5 ng / ml, 165 amino acid variant, Sigma Chemicals, Munich, Germany) was used as positive control. After 72 h the cells were detached from the support and counted. Experiments were repeated ten times using synthetic LL-37/hCAP-18 (37 C-terminal amino acids) and the hexapeptide WKYMVm, wherein "m" denotes the D-form of the amino acid methionine, from two different sources (IPF Pharmaceuticals, Hannover, Germany and Institute for Biochemistry, Humboldt-University of Berlin, Germany). As control peptide we used the peptide L-14 […] to have any interactions with FPRL1 from the same source (Humboldt-University). Human serum (10 %, donor with ABO blood group O) was applied under the same conditions to analyze any impact on induction of proliferation by LL-37. For inhibition experiments we applied inhibitors of G-protein coupled receptors (pertussis toxin, 10 ng/ml), PI-3K (wortmannin), and PKC (GF 109203X). For Matrigel assays HUVECs were seeded on Matrigel support (Beckton Dickinson, Franklin Lakes, NJ) and cultivated in serum free medium in the absence or presence of 0.5 µg/ml LL-37. After 18 h, the cultures were inspected for the formation of rings and cords. Experiments were repeated three times. We measured the ability of LL-37/hCAP-18 to accelerate proliferation of HUVECs in a proliferation assay. […] WKYMVm is a specific agonist for FPRL1 ^10.
As a next step we analyzed which mechanisms might be involved in the angiogenic activity of LL-37/hCAP-18. We applied inhibitors of G-protein coupled receptors (pertussis toxin), PI-3K (wortmannin), and PKC (GF 109203X) and monitored cell proliferation as outcome parameter.

## COC[C@H]1OC(=O)c2coc3c2[C@@]1(C)C1=C(C3=O)[C@@H]2CCC(=O)[C@@]2(C)C[C@H]1OC(C)=O [wortmannin]
  effect of inhibitor on baseline cell proliferation: no effect on the baseline measurements
  effect of inhibitor on proliferative response induced by LL-37/hCAP-18: inhibition of the proliferative response; also recorded: inhibited activities of LL-37/hCAP-18 on endothelial proliferation

## CN(C)CCCn1cc(C2=C(c3c[nH]c4ccccc34)C(=O)NC2=O)c2ccccc21 [GF 109203X]
Preincubation of endothelial cells with inhibitor (pertussis toxin 10 ng/ml)
  effect of inhibitor on proliferative response induced by LL-37/hCAP-18: inhibition of the proliferative response; also recorded: inhibited activities of LL-37/hCAP-18 on endothelial proliferation
Without LL-37/hCAP-18
  effect of inhibitor on baseline cell proliferation: no effect on the baseline measurements
